Assay results reported in patent US20230142274A1 (SIMCERE PHARMACEUTICAL CO., LTD., priority 2020, published 2023).

Test system: Daudi cells
Assay: Inhibition of human Daudi lymphoma cell proliferation (Cell-Titer Glo)
Assay type: cell-based
Details: Homo sapiens, 72 h, 3 days incubation, read-out: Anti-Proliferative Activity Against Daudi cells IC50
Protocol: Introduction of the experimental principle: After the RAD51 inhibitor to be tested was co-incubated with cancer cells for a period of time, the influence of the test compound on cell proliferation was measured by a method for counting cell proliferation based on the quantitative measurement of intracellular ATP content.
Materials and Cells: Daudi cells were purchased from ATCC; fetal bovine serum, 1640 medium and penicillin-streptomycin were purchased from Gibco Inc. (U.S.), 96-well plates were purchased from Corning Inc. (U.S.), and Cell-Titer Glo reagent was purchased from Promega Corporation (U.S.).
Cell culture: Daudi cells were cultured in 1640 culture medium containing 10% fetal bovine serum and 1% penicillin-streptomycin at 37° C. in an atmosphere containing 5% CO2. Cells in logarithmic growth phase could be used for experiments.
Assay of cell proliferation and viability: Cell-Titer Glo reagent was used to measure the inhibitory activities of the compounds on the proliferation of Daudi cell strain. The concentration of cells was adjusted, and the cells were seeded in a 96-well plate and cultured at 37° C. in an atmosphere containing 5% CO2 for 24 hours. The powder of the compound was dissolved in 100% DMSO to form a 10 mM solution. 10 μl of the solution of the compound was aspirated and transferred into a 96-well compound plate containing 20 μl of DMSO solution for 3-fold dilution and was then formulated into 10 serial dilutions. Thereafter, 2 μl of the solution of the compound was aspirated from the corresponding well and added correspondingly into a 96-well intermediate compound dilution plate containing 78 μl of complete culture medium in each well. The resultant was mixed well, and the plate was centrifuged at 1000 rpm for 1 minute. Finally, 10 μl of the solution of the compound was aspirated from the corresponding well of the 96-well intermediate compound dilution plate, and transferred into the corresponding well of the cell culture plate containing 90 μl of complete culture medium. The final concentration of DMSO was 0.25%. After the addition of the compound, the cells were continued to be incubated for 3 days at 37° C. in an atmosphere containing 5% CO2. Cell-Titer Glo reagent was added to measure cell viability.
% Compound inhibition was calculated and IC50 of the compound was filled;
% Compound inhibition=1−100%×(Signal−Bottom)/(Top−Bottom)

| IC50 [µM] | Compound |
| --- | --- |
| 0.009 | CC(C)OC(=O)N[C@H]1CC[C@H](c2ncc(-c3ccc(Nc4cccnc4)cc3S(=O)(=O)C3CC3)s2)CC1 [Example 76, isopropyl trans-N-[4-[5-[2-cyclopropylsulfonyl-4-(3-pyridylamino)phenyl]thiazol-2-yl]cyclohexyl]carbamate] |
| 0.004 | Cc1ccc(Nc2ccc(-c3cnc(C4CCC(NC(=O)OC(C)C)CC4)s3)c(S(=O)(=O)C3CC3)c2)nc1 (stereo not drawn) [Example 77, isopropyl trans-(4-(5-(2-(cyclopropylsulfonyl)-4-((5-methylpyridin-2-ylamino)phenyl)thiazol-2-yl)cyclohexyl)carbamate] |
| 0.004 | COc1ccc(Nc2ccc(-c3cnc([C@H]4CC[C@H](NC(=O)OC(C)C)CC4)s3)c(S(=O)(=O)C3CC3)c2)nc1 [Example 78, isopropyl trans-(4-(5-(2-(cyclopropylsulfonyl)-4-((5-methoxypyridin-2-yl)amino)phenyl)thiazol-2-yl)cyclohexyl)carbamate] |
| 0.051 | CC(C)OC(=O)N[C@H]1CC[C@H](c2ncc(-c3ccc(Nc4ncccn4)cc3S(=O)(=O)C3CC3)s2)CC1 [Example 79, isopropyl trans-(4-(5-(2-(cyclopropylsulfonyl)-4-(pyrimidin-2-ylamino)phenyl)thiazol-2-yl)cyclohexyl)carbamate] |
| 0.33 | CC(C)OC(=O)NC1CCC(c2ncc(-c3ccc(Nc4ncncn4)cc3S(=O)(=O)C3CC3)s2)CC1 (stereo not drawn) [Example 80, isopropyl trans-N-[4-[5-[2-cyclopropylsulfonyl]-4-(1,3,5-triazin-2-ylamino)phenyl]thiazol-2-yl]cyclohexyl]carbamate] |
| 0.25 | CC(C)OC(=O)N[C@H]1CC[C@H](c2ncc(-c3ccc(Nc4ccc(C(F)(F)F)cn4)cc3S(=N)(=O)C3CC3)s2)CC1 (some centres unmarked) [Example 82] |
| 0.2 | CC(C)OC(=O)N[C@H]1CC[C@H](c2ncc(-c3ccc(Oc4ccccn4)cc3S(=O)(=O)C3CC3)s2)CC1 [Example 83, isopropyl trans-(4-(5-(2-(cyclopropylsulfonyl)-4-(pyridin-2-yloxy)phenyl)thiazol-2-yl)cyclohexyl)carbamate] |
| 0.29 | CC(C)OC(=O)N[C@H]1CC[C@H](c2ncc(-c3ccc(-n4cccn4)cc3S(=O)(=O)C3CC3)s2)CC1 [Example 87, isopropyl trans-N-[4-[5-(2-cyclopropylsulfonyl-4-pyrazol-1-yl-phenyl)thiazol-2-yl]cyclohexyl]carbamate] |
| 0.007 | Cc1cc(Nc2ccc(-c3ccc([C@H]4CC[C@H](NC(=O)OC(C)C)CC4)s3)c(S(=O)(=O)C3CC3)c2)n[nH]1 [Example 89, isopropyl trans-(4-(5-(2-(cyclopropylsulfonyl)-4-((5-methyl-1H-pyrazol-3-yl)amino)phenyl)thiophen-2-yl)cyclohexyl)carbamate] |
| 0.127 | Cc1cc(Nc2ccc(-c3ccc([C@H]4CC[C@@H](NC(=O)OC(C)C)CC4)s3)c(S(=O)(=O)C3CC3)c2)n[nH]1 [Example 89-1, isopropyl cis-(4-(5-(2-(cyclopropylsulfonyl)-4-((5-methyl-1H-pyrazol-3-yl)amino)phenyl)thiophen-2-yl)cyclohexyl)carbamate] |
| 8.8 | Cc1cc(Nc2ccc(-c3cnc([C@H]4CC[C@H](NC(=O)OC(C)C)CC4)[nH]3)c(S(=O)(=O)C3CC3)c2)n[nH]1 [Example 90] |
| 1.5 | Cc1cc(Nc2ccc(-c3ncc([C@H]4CC[C@H](NC(=O)OC(C)C)CC4)s3)c(S(=O)(=O)C3CC3)c2)n[nH]1 [Example 91, isopropyl trans-(4-(2-(2-(cyclopropylsulfonyl)-4-((5-methyl-1H-pyrazol-3-yl)amino)phenyl)thiazol-5-yl)cyclohexyl)carbamate] |
| 0.06 | Cc1cc(Nc2ccc(-c3ncc([C@H]4CC[C@@H](NC(=O)OC(C)C)CC4)s3)c(S(=O)(=O)C3CC3)c2)n[nH]1 [Example 91-1, isopropyl cis-(4-(2-(2-(cyclopropylsulfonyl)-4-((5-methyl-1H-pyrazol-3-yl)amino)phenyl)thiazol-5-yl)cyclohexyl)carbamate] |
| 0.01 | COc1ccc(Nc2ccc(-c3cnc([C@H]4CC[C@H](NC(=O)OC(C)C)CC4)s3)c(S(=O)(=O)C3CC3)c2)cn1 [Example 93, isopropyl trans-(4-(5-(2-(cyclopropylsulfonyl)-4-((6-methoxypyridin-3-yl)amino)phenyl)thiazol-2-yl)cyclohexyl)carbamate] |
| 0.132 | CC(C)OC(=O)N[C@H]1CC[C@H](c2ncc(-c3ccc(Nc4ccc(=O)[nH]c4)cc3S(=N)(=O)C3CC3)s2)CC1 (stereo partly drawn) [Example 95, isopropyl trans-(4-(5-(2-(cyclopropanesulfonimidoyl)-4-((6-oxo-1,6-dihydropyridin-3-yl)amino)phenyl)thiazol-2-yl)cyclohexyl)carbamate] |
| 0.14 | CC(C)OC(=O)N[C@H]1CC[C@H](c2ncc(-c3ccc(Nc4ccc(=O)[nH]c4)cc3S(=O)(=O)C3CC3)s2)CC1 [Example 96, isopropyl trans-(4-(5-(2-(cyclopropylsulfonyl)-4-((6-oxo-1,6-dihydropyridin-3-yl)amino)phenyl)thiazol-2-yl)cyclohexyl)carbamate] |
| 0.29 | CN=S(=O)(c1cc(Nc2cc(C)[nH]n2)ccc1-c1cnc([C@H]2CC[C@H](NC(=O)OC(C)C)CC2)s1)C1CC1 (stereo partly drawn) [Example 97, isopropyl trans-(4-(5-(4-((5-methyl-1H-pyrazol-3-yl)amino)-2-(N-methylcyclopropanesulfonimidoyl)phenyl)thiazol-2-yl)cyclohexyl)carbamate] |
| 0.036 | CC(C)OC(=O)N[C@H]1CC[C@H](c2ncc(-c3ccc(Nc4ncco4)cc3S(=N)(=O)C3CC3)s2)CC1 (stereo partly drawn) [Example 99, isopropyl trans-(4-(5-(2-(cyclopropanesulfonimidoyl)-4-(oxazol-2-ylamino)phenyl)thiazol-2-yl)cyclohexyl)carbamate] |
| 0.68 | CC(C)OC(=O)N[C@H]1CC[C@H](c2ncc(-c3ccc(Nc4nnco4)cc3S(=N)(=O)C3CC3)s2)CC1 (stereo partly drawn) [Example 100, isopropyl trans-(4-(5-(4-((1,3,4-oxadiazol-2-yl)amino)-2-(cyclopropanesulfonimidoyl)phenyl)thiazol-2-yl)cyclohexyl)carbamate] |
| 0.026 | Cc1cc(Nc2ccc(-c3cnc([C@H]4CC[C@H](NC(=O)OC(C)C)CC4)s3)c(S(=N)(=O)C3COC3)c2)n[nH]1 (stereo partly drawn) [Example 105, isopropyl trans-N-[4-[5-[4-[(5-methyl-1H-pyrazol-3-yl)amino]-2-(oxetan-3-ylsulfonimidoyl)phenyl]thiazol-2-yl]cyclohexyl]carbamate] |
| 0.04 | CC(C)OC(=O)N[C@H]1CC[C@H](c2ncc(-c3ccc(Nc4cnn(CCF)c4)cc3S(=N)(=O)C3COC3)s2)CC1 (stereo partly drawn) [Example 106, isopropyl trans-N-[4-[5-[4-[[1-(2-fluoroethyl)pyrazol-4-yl]amino]-2-(oxetan-3-ylsulfonimidoyl)phenyl]thiazol-2-yl]cyclohexyl]carbamate] |
| 0.275 | Cc1cc(Nc2ccc(-c3nc4c(s3)CC(NC(=O)OC(C)C)CC4)c(S(=O)(=O)C3CC3)c2)n[nH]1 (centres unmarked) [Example 107, isopropyl (2-(2-(cyclopropylsulfonyl)-4-((5-methyl-1H-pyrazol-3-yl)amino)phenyl)-4,5,6,7-tetrahydrobenzo[d]thiazol-6-yl)carbamate] |
| 0.468 | Cc1cc(Nc2ccc(-c3nc4c(s3)CCN(C(=O)OC(C)C)CC4)c(S(=O)(=O)C3CC3)c2)n[nH]1 [Example 108, isopropyl 2-(2-(cyclopropylsulfonyl)-4-((5-methyl-1H-pyrazol-3-yl)amino)phenyl)-7,8-dihydro-4H-thiazolo[4,5-d]aza-6(5H)-carboxylate] |
| 0.076 | Cc1cc(Nc2ccc(-c3cnc(N4CC5C(C4)C5NC(=O)OC(C)C)s3)c(S(=O)(=O)C3CC3)c2)n[nH]1 (centres unmarked) [Example 109, isopropyl (3-(5-(2-(cyclopropylsulfonyl)-4-((5-methyl-1H-pyrazol-3-yl)amino)phenyl)thiazol-2-yl)-3-azabicyclo[3.1.0]hexanone-6-yl)carbamate] |
| 0.7 | CCNC(=O)c1ccc(-c2cnc([C@H]3CC[C@H](NC(=O)OC(C)C)CC3)s2)c(S(=O)(=O)C2CC2)c1 [Example 111, isopropyl trans-(4-(5-(2-(cyclopropylsulfonyl)-4-(ethylcarbamoyl)phenyl)thiazol-2-yl)cyclohexyl)carbamate] |
| 0.017 | CC(C)OC(=O)N[C@H]1CC[C@H](c2ncc(-c3ccc(Nc4ccc(F)cn4)cc3S(=O)(=O)C3COC3)s2)CC1 [Example 112, isopropyl trans-N-[4-[5-[4-[(5-fluoro-2-pyridyl)amino]-2-(oxetan-3-ylsulfonyl)phenyl]thiazol-2-yl]cyclohexyl]carbamate] |
